Reference: patent US8202899B2, “Pyrazole urea derivatives used as kinase inhibitors” (Array BioPharma Inc., priority 2007, dated 2012)
In brackets after ≈: the same amount, converted by molar mass. Read-outs that look alike come from different tables or passages of the source.

Assays:
[1] = Solubility Assay (modified shake flask method); type: physicochemical
Method: The solubility of each of the compounds of Examples 1 and 2 were tested at pHs 1.2, 6.5 and 7.4 using a modified shake flask method. The compounds were received as 1.6 mg/mL stock solutions in DMSO. Aqueous unknowns were prepared at final concentrations of 16 μg/mL and 32 μg/mL, with each aqueous unknown containing 1% or 2% DMSO, respectively. The aqueous samples were quantitated against organic standards prepared in MeOH (with 1% DMSO in the high standard (16 μg/mL). UV 220 nm and UV 254 nm area were used for quantitation.

[2] = tested on: TNF-α production in whole blood treated with LPS; test: Human Whole Blood TNF-α Assay; type: cell-based; details: inhibition of LPS-induced TNF-α production, ELISA, read-out: apparent IC50
Method: In a functional cell assay, the compound of Examples 1 and 2 were tested for their ability to inhibit TNF-α production in whole blood treated with bacterial lipopolysaccharide (LPS) to induce cytokine production (as detected by ELISA).
Compound test solutions were made by making 3.33 fold serial dilutions in DMSO, which dilutions were then diluted to 5× stocks by diluting with MEM, 2% heat inactivated fetal bovine serum (“MS”), 20 mM HEPES, 2 mM L-glutamine, and 1% penicillin/streptomycin
Whole blood was collected from human volunteers using sodium heparin Vacutainer™ tubes and processed within two hours of collection. Blood was diluted 3-fold with Whole Blood (WB) medium (RPMI 1640, 2% heat inactivated fetal bovine serum, 20 mM HEPES, 2 mM L-glutamine, and 1% penicillin/streptomycin). 100 μL of diluted blood was added to each well of a 96-well cell culture plate, followed by 30 μL of a compound test solution.
After a one-hour incubation at 37° C./5% CO2, 20 μL of 7.5 ng/mL lipopolysaccharide (E. coli K-235, Sigma L2018) was added to each well. The cells were incubated again at 37° C./5% CO2 for 16-20 hours. […]
Briefly, test compound supernatants were added to wells of a 96-well plate that were coated with antibody to human TNF-α (R&D Systems, MAB210) and incubated at room temperature for at least one hour. […] The absorbance at 405 nm was then read.

[3] = biological target: activated p38α enzyme (Homo sapiens, UniProt Q16539); test: p38 Biochemical Assay
Sequence of activated p38α enzyme (Q16539 whole entry, the tested form may be a part): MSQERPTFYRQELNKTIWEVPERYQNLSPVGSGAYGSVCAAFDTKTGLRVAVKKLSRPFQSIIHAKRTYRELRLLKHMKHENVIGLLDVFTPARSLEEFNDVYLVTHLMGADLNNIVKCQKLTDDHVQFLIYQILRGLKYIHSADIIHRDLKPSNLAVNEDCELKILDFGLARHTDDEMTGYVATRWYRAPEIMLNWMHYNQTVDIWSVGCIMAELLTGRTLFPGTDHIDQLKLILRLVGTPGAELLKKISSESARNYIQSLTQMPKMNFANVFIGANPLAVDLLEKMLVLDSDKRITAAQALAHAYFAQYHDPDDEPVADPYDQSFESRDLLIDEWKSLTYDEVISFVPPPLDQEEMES
Method: p38 activity was assayed at room temperature in a 100 μL reaction containing 5 nM activated p38α enzyme and 1 μM ATF-2 (Activating Transcription Factor 2 fusion protein) as the substrate in […] HEPES (pH 7.4), 100 μM Vanadate, 1 mM :DTT, 10 mM MgCl2 and 10 μM [γ-^33P]-ATP (˜0.1 μCi P^33/reaction). The reaction was terminated after 30-40 minutes by adding 25% TCA, allowed to stand for 5 minutes, and then transferred directly to a GF-B membrane filter plate. The filter was washed twice for 30 seconds with 0.5% phosphoric acid using a Tomtec Mach III Automated Harvestor. After washing, the vacuum was continued for 30 seconds to dry the filter. Approximately 30 μL of scintillant was added per well to the filter plate and then read in a Liquid Scintillation Counter (Packard TopCount HTS).

Row | Structure (SMILES) | solubility ([1]; aqueous sample containing 1% DMSO, aqueous buffer, kinetic from dmso stock, pH 6.5, starting conc. 16 μg/mL (with 1% DMSO), read-out: Solubility pH 6.5) [µg/mL] | solubility ([1]; aqueous sample containing 1% DMSO, aqueous buffer, kinetic from dmso stock, pH 7.4, starting conc. 16 μg/mL (with 1% DMSO), read-out: Solubility pH 7.4) [µg/mL] | solubility ([1]; aqueous sample containing 1% DMSO, simulated gastric fluid, kinetic from dmso stock, pH 1.2, starting conc. 16 μg/mL (with 1% DMSO), read-out: Solubility pH 1.2) [µg/mL] | solubility ([1]; aqueous sample containing 2% DMSO, aqueous buffer, kinetic from dmso stock, pH 6.5, starting conc. 32 μg/mL (with 2% DMSO), read-out: Solubility pH 6.5) [µg/mL] | solubility ([1]; aqueous sample containing 2% DMSO, aqueous buffer, kinetic from dmso stock, pH 7.4, starting conc. 32 μg/mL (with 2% DMSO), read-out: Solubility pH 7.4) [µg/mL] | solubility ([1]; aqueous sample containing 2% DMSO, simulated gastric fluid, kinetic from dmso stock, pH 1.2, starting conc. 32 μg/mL (with 2% DMSO), read-out: Solubility pH 1.2) [µg/mL] | aqueous solubility compared to the compound of Example 138 of WO 2004/078116 ([1]; at pH 6.5 and 7.4) | IC50 [2] [nM] | p38 inhibition potency compared to the compound of Example 138 of WO 2004/078116 [3] | solubility ([1]; aqueous solution (pH 7.4), aqueous buffer, pH 7.4, starting conc. 1000 μg/mL, read-out: Solubility pH 7.4) [µg/mL]
1 | Cc1ccc(-n2nc(C(C)(C)CO)cc2NC(=O)NCc2cc(F)ccc2Oc2ccc3c(cnn3CCO)c2)cc1 [Example 1] | 0.75 (≈ 1.31 µM) | 0.7 (≈ 1.22 µM) | 7.9 (≈ 13.8 µM) | 1.8 (≈ 3.14 µM) | 1.7 (≈ 2.97 µM) | 18.8 (≈ 32.8 µM) | improved aqueous solubility | 447 | – | –
2 | CC(C)(C)c1cc(NC(=O)NCc2cc(F)ccc2Oc2ccc3c(cnn3CCO)c2)n(-c2ccc(CO)cc2)n1 [Example 2, 1-(3-tert-butyl-1-(4-(hydroxymethyl)phenyl)-1H-pyrazol-5-yl)-3-(5-fluoro-2-(1-(2-hydroxymethyl)-1H-indazol-5-yloxy)benzyl)urea] | – | – | – | – | – | – | – | 1.9 | significantly more potent inhibitor of p38 | –
3 | Cn1nc(C(C)(C)C)cc1NC(=O)NCc1cc(F)ccc1Oc1ccc2c(cnn2CC(C)(C)O)c1 [Example 138, reference compound] | – | – | – | – | – | – | – | – | – | 0.045 (≈ 0.0885 µM)
